Results on 11 compounds are retold here after ChEMBL document CHEMBL1201862, “PubChem BioAssay data set” (2004).

The structures appear in SMILES notation.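 Test compounds were applied to cells in 96-well plates for 48 hours at 5 doses. GI50 marks 50% less growth.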 Calls of active or inactive are those of the source. Cut-off read from the data, not from the text of the source: active = GI50 up to about 1.1 µM and inactive = higher. Some results are limits rather than exact numbers.

Test systems include EKVX; HCT-116; LOX IMVI; HOP-92; A498; SF-268; SN12C; Hs-578T; UO-31; Malme-3M; NCI-H460; KM12; HCC 2998; U-251; IGROV-1; RPMI-8226; OVCAR-3; CCRF-CEM; HL-60; MOLT-4.
What all share (test): NCI anticancer screen, dose series, 48 h

As to `S=C(Nc1ccc2cn[nH]c2c1)Nc1ccc2cn[nH]c2c1`, the GI50 was 54 µM (inactive) in the test with EKVX; 58.5 µM (inactive) in the test on HCT-116; 70 µM (inactive) in the test with LOX IMVI; > 100 µM (inactive) in the test on HOP-92; 46 µM (inactive) in the test on A498; > 100 µM (inactive) in the test with SF-268. Further, the GI50 with SN12C is > 100 µM (inactive); with Hs-578T, > 100 µM (inactive); with UO-31, > 100 µM (inactive); in the test with Malme-3M it was > 100 µM (inactive); in the test on NCI-H460, 43 µM (inactive); with KM12 it was 53.7 µM (inactive). Also, the GI50 in the test on HCC 2998 was 60.8 µM (inactive); with U-251, 57.4 µM (inactive); with IGROV-1, 46.8 µM (inactive); in the test on RPMI-8226 it was 38 µM (inactive); with OVCAR-3 it was > 100 µM (inactive).
In the case of `C[C@]12CC[C@H]3[C@@H](CCC4=C(Br)C(=O)C=C[C@@]43O)[C@@H]1CCC2=O`, the GI50 was 61.2 µM (inactive) in the test on EKVX; 26.4 µM (inactive) in the test with HCT-116; 32.3 µM (inactive) with LOX IMVI; 0.957 µM (active) in the test with CCRF-CEM; 32.2 µM (inactive) in the test on HOP-92; 49.2 µM (inactive) in the test with A498. Moreover, the GI50 in the test on SF-268 is 45.7 µM (inactive); with SN12C, 33.7 µM (inactive); with Hs-578T it was 62.8 µM (inactive); with UO-31, 42.2 µM (inactive); in the test with HL-60, 21.2 µM (inactive); in the test with Malme-3M, 93.5 µM (inactive). Further, the GI50 with NCI-H460 is 23.5 µM (inactive); in the test on KM12, 34.2 µM (inactive); with U-251, 52.6 µM (inactive); in the test on MOLT-4 it was 25.2 µM (inactive); in the test with IGROV-1 it was 36 µM (inactive); in the test on RPMI-8226, 33.7 µM (inactive). Moreover, in the test on OVCAR-3, the GI50 is 45.4 µM (inactive).
`CC1=NNC(=O)C1C1CC(c2c[nH]c3ccccc23)=NNC1=S` (configuration not stated): the GI50 in the test with EKVX is 28.4 µM (inactive); in the test with HCT-116, > 100 µM (inactive); in the test with CCRF-CEM it was 28.6 µM (inactive); in the test with HOP-92 it was > 100 µM (inactive); with A498 it was > 100 µM (inactive); in the test with SF-268 it was > 100 µM (inactive). The GI50 in the test on SN12C was > 100 µM (inactive); with Hs-578T it was > 100 µM (inactive); in the test with UO-31, 30.6 µM (inactive); in the test on HL-60, 68.4 µM (inactive); in the test on Malme-3M it was > 100 µM (inactive); in the test on NCI-H460, 68.5 µM (inactive). Also, the GI50 in the test with KM12 was 29.6 µM (inactive); in the test on U-251, > 100 µM (inactive); with MOLT-4 it was 37.2 µM (inactive); with RPMI-8226 it was 36.2 µM (inactive); with OVCAR-3, > 100 µM (inactive).
With `CC1(C)[C@@H](Cn2cnc3c(N)ncnc32)CC[C@@]1(C)CO`, the GI50 with EKVX is > 100 µM (inactive); in the test with HCT-116 it was 44.9 µM (inactive); with LOX IMVI it was > 100 µM (inactive); in the test with CCRF-CEM, 51.9 µM (inactive); in the test on HOP-92, > 100 µM (inactive); in the test on A498, > 100 µM (inactive). Further, the GI50 in the test with SF-268 was > 100 µM (inactive); with SN12C it was > 100 µM (inactive); with Hs-578T, > 100 µM (inactive); in the test with UO-31 it was 81.1 µM (inactive); with HL-60, 40.1 µM (inactive); with Malme-3M it was > 100 µM (inactive). The GI50 was > 100 µM (inactive) in the test with NCI-H460; 27.4 µM (inactive) in the test with KM12; 53 µM (inactive) in the test on HCC 2998; > 100 µM (inactive) in the test on U-251; 11.9 µM (inactive) in the test with MOLT-4; 42.7 µM (inactive) in the test with IGROV-1. In addition, in the test on OVCAR-3, the GI50 was 73.6 µM (inactive).
Take `CSc1nc2cc(S(=O)(=O)N3CCCCC3)ccc2s1`: the GI50 with EKVX is 41.3 µM (inactive); with HCT-116 it was > 100 µM (inactive); in the test on LOX IMVI, > 100 µM (inactive); in the test on CCRF-CEM, > 100 µM (inactive); with HOP-92, > 100 µM (inactive); in the test with A498, > 100 µM (inactive). The GI50 with SF-268, with SN12C, in the test on Hs-578T, in the test on UO-31, in the test on HL-60 and in the test on Malme-3M was > 100 µM (inactive) throughout. In addition, the GI50 with NCI-H460, in the test with KM12, with U-251, in the test with MOLT-4, with IGROV-1 and in the test with RPMI-8226 was > 100 µM (inactive) each time. Moreover, the GI50 in the test with OVCAR-3 was > 100 µM (inactive).
As to `CCn1c(=O)c2c3cc(OC(C)=O)ccc3oc2c2ccc(OC(C)=O)cc21`, the GI50 in the test with EKVX is 21 µM (inactive); in the test on HCT-116 it was 32.2 µM (inactive); with CCRF-CEM, 17.2 µM (inactive); in the test on HOP-92 it was 23.4 µM (inactive); with A498, 24.8 µM (inactive); with SF-268, 31.9 µM (inactive). Further, the GI50 is 43.6 µM (inactive) in the test on SN12C; 11.1 µM (inactive) in the test on Hs-578T; 26.6 µM (inactive) in the test with UO-31; 39.4 µM (inactive) in the test on Malme-3M; 21.8 µM (inactive) in the test with NCI-H460; 40.1 µM (inactive) in the test on KM12. For the same compound, the GI50 in the test with HCC 2998 is 23.4 µM (inactive); in the test with U-251, 32.6 µM (inactive); in the test with MOLT-4, 23.6 µM (inactive); in the test on IGROV-1 it was 38.9 µM (inactive); in the test on OVCAR-3, 39.8 µM (inactive).
Consider `O=C(O)CCN1C(=S)CSC1=S`, for which the GI50 is > 100 µM (inactive) in the test with EKVX; > 100 µM (inactive) in the test on HCT-116; 94.4 µM (inactive) in the test with LOX IMVI; 44.2 µM (inactive) with CCRF-CEM; > 100 µM (inactive) with HOP-92; > 100 µM (inactive) in the test with A498. For the same compound, the GI50 in the test with SF-268 is > 100 µM (inactive); with SN12C, > 100 µM (inactive); in the test on Hs-578T it was > 100 µM (inactive); in the test on Malme-3M, > 100 µM (inactive); with NCI-H460, 88.1 µM (inactive); in the test with KM12 it was > 100 µM (inactive). The GI50 with U-251 was > 100 µM (inactive); with MOLT-4 it was 42 µM (inactive); in the test on IGROV-1, > 100 µM (inactive); with RPMI-8226, 54.7 µM (inactive); in the test with OVCAR-3, > 100 µM (inactive).
Regarding `NS(=O)(=O)c1nnc(NC(=O)C23CC4CC(CC(C4)C2)C3)s1`, the GI50 is > 100 µM (inactive) with EKVX; > 100 µM (inactive) with HCT-116; > 100 µM (inactive) in the test on LOX IMVI; > 100 µM (inactive) in the test on HOP-92; > 100 µM (inactive) in the test with A498; 55.7 µM (inactive) with SF-268. Moreover, the GI50 in the test on SN12C is > 100 µM (inactive); with Hs-578T, > 100 µM (inactive); in the test with UO-31, > 100 µM (inactive); with Malme-3M, > 100 µM (inactive); in the test with NCI-H460 it was 60.1 µM (inactive); in the test on KM12 it was > 100 µM (inactive). Besides, the GI50 in the test on HCC 2998 was > 100 µM (inactive); with U-251, > 100 µM (inactive); in the test with MOLT-4 it was > 100 µM (inactive); in the test on RPMI-8226, 88.9 µM (inactive); in the test on OVCAR-3, > 100 µM (inactive).
For the compound `CCC[C@H](O)[C@@H](CNc1cc(NC(C)=O)nc(NC(C)=O)n1)N(Cc1ccccc1)Cc1ccccc1`, the GI50 in the test on EKVX was 12.1 µM (inactive); in the test with HCT-116, 16.6 µM (inactive); in the test with LOX IMVI it was 27.9 µM (inactive); in the test on CCRF-CEM, > 10 µM (inactive); with HOP-92, 34.4 µM (inactive); with A498 it was 30.8 µM (inactive). For the same compound, the GI50 is 41.3 µM (inactive) with SN12C; 14 µM (inactive) in the test on Hs-578T; 18.1 µM (inactive) in the test with UO-31; 26.1 µM (inactive) with Malme-3M; 21.8 µM (inactive) in the test on NCI-H460; 11.1 µM (inactive) in the test on KM12. Also, the GI50 is 76.4 µM (inactive) with HCC 2998; 47 µM (inactive) in the test on U-251; 4.47 µM (inactive) in the test with MOLT-4; 12.8 µM (inactive) with IGROV-1; 46.2 µM (inactive) in the test on RPMI-8226; 18.9 µM (inactive) in the test with OVCAR-3.
`COc1ccc(OC)c2sc(N3C(=O)/C(=C/c4ccc(N(C)C)cc4)N=C3c3ccccc3)nc12`: the GI50 in the test with EKVX is > 100 µM (inactive); in the test on HCT-116 it was 34.8 µM (inactive); in the test with LOX IMVI, 41 µM (inactive); in the test with CCRF-CEM, 6.04 µM (inactive); in the test on HOP-92, > 100 µM (inactive); in the test on A498, 87.7 µM (inactive). The GI50 with SF-268 was > 100 µM (inactive); in the test with SN12C it was 52.5 µM (inactive); with Hs-578T, 91 µM (inactive); in the test on UO-31, 55 µM (inactive); with HL-60 it was 20.9 µM (inactive); in the test with NCI-H460, 92.9 µM (inactive). The GI50 in the test with KM12 was 52 µM (inactive); in the test on HCC 2998, > 100 µM (inactive); in the test with U-251 it was 44.1 µM (inactive); with MOLT-4, 15.5 µM (inactive); in the test on IGROV-1, > 100 µM (inactive); with RPMI-8226, 11 µM (inactive). Besides, the GI50 in the test with OVCAR-3 is 58.2 µM (inactive).
As to `COc1cc2cc(C(=O)N3CC(CCl)c4c3cc(NCCN)c3ccccc43)[nH]c2c(OC)c1OC` (configuration not stated), the GI50 in the test on EKVX was < 0.0126 µM (active); in the test with HCT-116, < 0.01 µM (active); in the test on LOX IMVI it was < 0.01 µM (active); with HOP-92, < 0.01 µM (active); in the test with A498, < 0.01 µM (active); in the test on SF-268 it was < 0.01 µM (active). Besides, the GI50 in the test on SN12C, in the test on Hs-578T, with UO-31, in the test with Malme-3M, in the test on NCI-H460 and with KM12 was < 0.01 µM (active) throughout. For the same compound, the GI50 was < 0.01 µM (active) with HCC 2998; < 0.01 µM (active) with U-251; < 0.01 µM (active) in the test on MOLT-4; < 0.01 µM (active) in the test with IGROV-1; < 0.01 µM (active) with RPMI-8226; 0.0123 µM (active) with OVCAR-3.
